This is an account of results in ChEMBL document CHEMBL1201862, “PubChem BioAssay data set” (2004).

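96-well plates; 48 h exposure; 5 concentrations. Endpoints by linear interpolation between flanking doses. Not reached: highest tested concentration assigned. Here, GI50 denotes the concentration required for 50% inhibition of growth.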 Calls of active or inactive are those of the source. Cut-off read from the data, not from the text of the source: active = GI50 up to about 1.1 µM and inactive = higher.

Holding throughout (assay): NCI-60 cell line screen, 48 h
Assay [1] has as its system A549.
Assay [2] concerns SF-295.
For assay [3], the system named is HCT-15.
Assay [4] has as its system NCI-H460.
In assay [5] the test system is NCI/ADR-RES.
Assay [6] relates to Hs-578T.
The subject of assay [7] is EKVX.
Assay [8] deals with OVCAR-8.
The subject of assay [9] is SNB-19.
Assay [10] has as its system NCI-H522.
In assay [11] the test system is IGROV-1.
The subject of assay [12] is HCT-116.
Assay [13] deals with TK-10.
Assay [14] relates to PC-3.
Assay [15] concerns SNB-75.
Assay [16] concerns T47D.
Assay [17] relates to MCF7.
Assay [18] concerns SK-OV-3.
For assay [19], the system named is COLO 205.
Assay [20] relates to SN12C.

For `COc1ccc(C2C(C)C(=O)C(C)C(c3ccc(OC)cc3)N2N=O)cc1` (stereo not given), the GI50 was 239 µM (inactive) in assay [1]; 126 µM (inactive) in assay [2]; > 1000 µM in [3]; > 659 µM (inactive) in assay [4]; 258 µM (inactive) in [5]; 56.5 µM (inactive) in [6]. Further, the GI50 in assay [7] was > 830 µM (inactive); in [8], 340 µM (inactive); in [9] it was 195 µM (inactive); in [10], > 427 µM (inactive); in assay [11] it was 165 µM (inactive); in assay [12], 127 µM (inactive). Further, the GI50 in [13] is 90.6 µM (inactive); in assay [14], 253 µM (inactive); in assay [15], 26.5 µM (inactive); in [16], 127 µM (inactive); in assay [17], 372 µM (inactive); in assay [18], 257 µM (inactive). Further, the GI50 was > 550 µM (inactive) in assay [19] and 530 µM (inactive) in assay [20].
With `C=C(C)C12CC3CC/C(=N/O)C(C1)C3(N1CCOCC1)C/C2=N/O` (stereo not given), the GI50 in assay [1] is > 100 µM (inactive); in assay [2], > 100 µM (inactive); in [3], > 100 µM; in [4] it was > 100 µM (inactive); in [5], > 100 µM (inactive); in assay [6], > 100 µM (inactive). In addition, the GI50 in [7], in assay [8], in assay [9], in [10], in assay [11] and in [12] was > 100 µM (inactive) each time. In addition, the GI50 in assay [13], in assay [14], in assay [15], in [16], in [17] and in [18] was > 100 µM (inactive) in each case. The GI50 in assay [19] and in assay [20] was > 100 µM (inactive) in each case.
Consider `CC(/C=N/N=C1NCCCN1)=N\N=C1NCCCN1`, for which the GI50 in [1] was > 100 µM (inactive); in assay [2], > 100 µM (inactive); in assay [3] it was > 100 µM; in assay [4], > 100 µM (inactive); in assay [5] it was > 100 µM (inactive); in assay [6], > 100 µM (inactive). The GI50 in assay [7], in assay [8], in [9], in assay [10], in assay [11] and in [12] was > 100 µM (inactive) in each case. Further, the GI50 in assay [13], in assay [14], in assay [15], in [16], in [17] and in assay [18] was > 100 µM (inactive) in each case. The GI50 in [19] and in assay [20] was > 100 µM (inactive) throughout.
With `CCOC(=O)Nc1ccc(C)c(NC(=O)OCC)c1`, the GI50 in assay [1] was > 100 µM (inactive); in assay [2], > 100 µM (inactive); in assay [3] it was > 100 µM; in [4] it was > 100 µM (inactive); in assay [5] it was > 100 µM (inactive); in assay [6], > 100 µM (inactive). The GI50 in [7] is 6.58 µM (inactive); in assay [8], > 100 µM (inactive); in [9] it was > 100 µM (inactive); in assay [10] it was > 100 µM (inactive); in assay [11] it was 55.6 µM (inactive); in [12], > 100 µM (inactive). The GI50 in assay [13], in [14], in assay [15], in [16], in assay [17] and in [18] was > 100 µM (inactive) throughout. Further, the GI50 in assay [19] and in [20] was > 100 µM (inactive) throughout.
For the molecule `Nc1c(O)c(C(=O)O)cc2ccccc12`, the GI50 in assay [1] was 45.4 µM (inactive); in assay [2], 51.8 µM (inactive); in [3] it was 36.6 µM; in assay [4] it was 39.6 µM (inactive); in assay [5] it was 32.1 µM (inactive); in assay [6], 37 µM (inactive). In addition, the GI50 in [7] was 53.8 µM (inactive); in [8], 44.3 µM (inactive); in assay [9], > 100 µM (inactive); in assay [10] it was 17.7 µM (inactive); in assay [11], > 100 µM (inactive); in assay [12], 17.5 µM (inactive). Moreover, the GI50 in assay [13] was 98.4 µM (inactive); in assay [14], 39.1 µM (inactive); in assay [15] it was 24.3 µM (inactive); in assay [16], 37 µM (inactive); in [17] it was 11.6 µM (inactive); in [18], > 100 µM (inactive). The GI50 was 26.1 µM (inactive) in assay [19] and 38.4 µM (inactive) in [20].
Regarding `COc1c(C(=O)/C(=N/Nc2ccc(C(=O)O)cc2)C(C)=O)c(O)cc2occc12`, the GI50 in [1] was > 100 µM (inactive); in assay [2], 82.8 µM (inactive); in [3], 93.8 µM; in [4] it was 82 µM (inactive); in [5], > 100 µM (inactive); in assay [6] it was > 100 µM (inactive). Besides, the GI50 is > 100 µM (inactive) in assay [7]; > 100 µM (inactive) in assay [8]; > 100 µM (inactive) in [9]; 51.3 µM (inactive) in assay [10]; > 100 µM (inactive) in assay [11]; > 100 µM (inactive) in assay [12]. The GI50 was 15.6 µM (inactive) in assay [13]; > 100 µM (inactive) in [14]; 50.7 µM (inactive) in [15]; > 100 µM (inactive) in assay [16]; > 100 µM (inactive) in assay [17]; > 100 µM (inactive) in assay [18]. The GI50 in [19] and in assay [20] was > 100 µM (inactive) throughout.
In the case of `Cc1ccc2c(c1)OC1Nc3ccccc3C1=C2O` (stereo not given), the GI50 is 23.4 µM (inactive) in assay [1]; 21.6 µM (inactive) in assay [2]; 25.1 µM in assay [3]; 20.2 µM (inactive) in assay [4]; 20.9 µM (inactive) in [5]; 73.8 µM (inactive) in assay [6]. In addition, the GI50 in assay [7] was 17.4 µM (inactive); in [8], 35 µM (inactive); in [9], 31.6 µM (inactive); in [10] it was 28.7 µM (inactive); in assay [11] it was 29.9 µM (inactive); in [12] it was 24.8 µM (inactive). Moreover, the GI50 in assay [13] was 22.9 µM (inactive); in assay [14], 16.3 µM (inactive); in assay [15] it was 23.2 µM (inactive); in assay [16] it was 20.3 µM (inactive); in [17], 17.2 µM (inactive); in assay [18], 13.9 µM (inactive). The figures for the GI50 in [19] and in assay [20] were 14.8 µM (inactive) and 27.3 µM (inactive), respectively.
As for `O=C1c2ccccc2C(=O)N1C(=S)c1ccccc1`, the GI50 in assay [1] is > 100 µM (inactive); in assay [2], > 100 µM (inactive); in assay [3] it was > 100 µM; in [4], > 100 µM (inactive); in assay [5], > 100 µM (inactive); in [6] it was > 100 µM (inactive). Further, the GI50 in assay [7], in assay [8], in [9], in assay [10], in assay [11] and in assay [12] was > 100 µM (inactive) in each case. In addition, the GI50 in assay [13], in assay [14], in [15], in assay [16], in assay [17] and in [18] was > 100 µM (inactive) in each case. In addition, the GI50 in assay [19] and in assay [20] was > 100 µM (inactive) throughout.
`Cc1c2cc[n+](C)c(C)c2cc2c1[nH]c1ccccc12`: the GI50 was 1.59 µM (inactive) in assay [1]; 2.27 µM (inactive) in assay [2]; > 100 µM in assay [3]; 3.37 µM (inactive) in assay [4]; 71.1 µM (inactive) in assay [5]; 0.818 µM (active) in [6]. Further, the GI50 in assay [7] was 5.46 µM (inactive); in assay [8] it was 2.82 µM (inactive); in assay [9], 0.8 µM (active); in assay [10], 2.86 µM (inactive); in assay [11], 7.98 µM (inactive); in [12], 16.1 µM (inactive). Besides, the GI50 was > 89.3 µM (inactive) in [13]; 22.2 µM (inactive) in assay [14]; 1.19 µM (inactive) in assay [15]; 2.14 µM (inactive) in [16]; 5.74 µM (inactive) in assay [17]; 12.7 µM (inactive) in [18]. The GI50 in [19] is 1.57 µM (inactive); in [20] it was 0.627 µM (active).
Regarding `CCOC(=O)C1=C(C)C2C=C(c3cccs3)CC(c3ccc(Cl)cc3)=C2OC1=O` (stereo not given), the GI50 in [1] was > 100 µM (inactive); in assay [2] it was 60.4 µM (inactive); in assay [3], 16.8 µM; in assay [4], 64.4 µM (inactive); in assay [5], 30.5 µM (inactive); in assay [6], > 100 µM (inactive). The GI50 in assay [7] is 31 µM (inactive); in [8], 31.8 µM (inactive); in [9], 45.2 µM (inactive); in [10] it was 19.2 µM (inactive); in [11], 26.3 µM (inactive); in assay [12], 7.43 µM (inactive). The GI50 in assay [13] was 31.7 µM (inactive); in [14], 14.1 µM (inactive); in assay [15], 50.8 µM (inactive); in assay [16], 3.97 µM (inactive); in assay [17], 14.1 µM (inactive); in assay [18], > 100 µM (inactive). The GI50 in [19] is 40.9 µM (inactive); in [20] it was 44.3 µM (inactive).
